Results: patent US9763445B2, “Safened herbicidal compositions comprising a pyridine carboxylic acid herbicide” (Dow AgroSciences, LLC, priority 2014, dated 2017)

How the values were obtained:
spring barley (HORVS) = experiment: Postemergence greenhouse trial, % visual injury on spring barley; assay type: in vivo, Hordeum vulgare
Summary of the method: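 Greenhouse crops at second to third true leaf stage sprayed postemergence at 187 L/ha with herbicide (g ae/ha) plus safener (g ai/ha) in acetone/DMSO diluted into 1.5% v/v Agri-dex. Injury scored visually versus solvent-blank controls after 20-22 d, 0 (none) to 100% (complete kill); expected mixture effects by Colby's equation.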

wild mustard (SINAR) = experiment: Postemergence greenhouse trial, % visual injury on wild mustard; assay type: in vivo, Sinapis arvensis; settings: for % visual injury, Ob / % visual injury, observed (Ob): SINAR
Summary of the method: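 Herbicide rates g ae/ha, safener (cloquintocet-mexyl) rates g ai/ha; spray carrier 1.5% v/v crop oil concentrate, 187 L/ha, 2nd–3rd leaf stage. Rating: visual % injury at 20-22 d.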

Russian thistle (SASKR) = experiment: Postemergence greenhouse trial, % visual injury on Russian thistle; assay type: in vivo, Salsola kali; settings: SASKR
[1] = compound 0 g/ha, CQC-m 4.375 g/ha
[2] = compound 0 g/ha, CQC-m 8.75 g/ha
[3] = compound 0 g/ha, CQC-m 17.5 g/ha
[4] = compound 8 0 + CQC-m 4.375 g/ha

CCCCCC(C)OC(=O)COc1ccc(Cl)c2cccnc12 (stereo not drawn) [CQC-m, cloquintocet-mexyl, reference compound]
0%: % visual injury, Ob (spring barley (HORVS); HORVS, 4.375 g/ha, applied alone) | % visual injury, Ob (spring barley (HORVS); HORVS, 8.75 g/ha, applied alone) | % visual injury, Ob (spring barley (HORVS); HORVS, 17.5 g/ha, applied alone) | % visual injury, Ob (spring barley (HORVS); HORVS, 35 g/ha, applied alone) | % visual injury, Ob (spring barley (HORVS); HORVS, 70 g/ha, applied alone) | % visual injury, Ob (spring barley (HORVS); HORVS, compound 0, CQC-m 4.375 g/ha) | % visual injury, Ob (spring barley (HORVS); HORVS, compound 0, CQC-m 8.75 g/ha) | % visual injury, Ob (spring barley (HORVS); HORVS, compound 0, CQC-m 17.5 g/ha) | % visual injury, Ob (spring barley (HORVS); HORVS, compound 0, CQC-m 35 g/ha) | % visual injury, Ob (spring barley (HORVS); HORVS, compound 0, CQC-m 70 g/ha) | % visual injury, Ob (spring barley (HORVS); HORVS, compound 0 g/ha, CQC-m 4.375 g/ha) | % visual injury, Ob (spring barley (HORVS); HORVS, compound 0 g/ha, CQC-m 8.75 g/ha) | % visual injury, Ob (spring barley (HORVS); HORVS, compound 0 g/ha, CQC-m 17.5 g/ha) | % visual injury, Ob (spring barley (HORVS); HORVS, compound 0 g/ha, CQC-m 35 g/ha) | % visual injury, Ob (spring barley (HORVS); HORVS, compound 0 g/ha, CQC-m 70 g/ha) | % visual injury, observed (Ob) (spring barley (HORVS); HORVS, compound 8 0 + CQC-m 4.375 g/ha) | % visual injury, observed (Ob) (spring barley (HORVS); HORVS, compound 8 0 + CQC-m 8.75 g/ha) | % visual injury, observed (Ob) (spring barley (HORVS); HORVS, compound 8 0 + CQC-m 17.5 g/ha) | % visual injury, observed (Ob) (spring barley (HORVS); HORVS, compound 8 0 + CQC-m 35 g/ha) | % visual injury, observed (Ob) (spring barley (HORVS); HORVS, compound 8 0 + CQC-m 70 g/ha) | % visual injury, Ob (spring barley (HORVS); alone, 4.375 g/ha) | % visual injury, Ob (spring barley (HORVS); alone, 8.75 g/ha) | % visual injury, Ob (spring barley (HORVS); alone, 17.5 g/ha) | % visual injury, Ob (spring barley (HORVS); alone, 20 g/ha) | % visual injury, Ob (spring barley (HORVS); alone, 35 g/ha) | % visual injury, Ob (spring barley (HORVS); alone, 40 g/ha) | % visual injury, Ob (spring barley (HORVS); alone, 70 g/ha) | % visual injury, Ob (spring barley (HORVS); alone, 80 g/ha) | pest or weed control at 4.375 g/ha (wild mustard (SINAR); Brassica, post-emergence, alone, 4.375 g/ha, read-out: % visual injury, Ob) | pest or weed control at 8.75 g/ha (wild mustard (SINAR); Brassica, post-emergence, alone, 8.75 g/ha, read-out: % visual injury, Ob) | pest or weed control at 17.5 g/ha (wild mustard (SINAR); Brassica, post-emergence, alone, 17.5 g/ha, read-out: % visual injury, Ob) | pest or weed control at 35 g/ha (wild mustard (SINAR); Brassica, post-emergence, alone, 35 g/ha, read-out: % visual injury, Ob) | pest or weed control at 70 g/ha (wild mustard (SINAR); Brassica, post-emergence, alone, 70 g/ha, read-out: % visual injury, Ob) | % visual injury, Ob (wild mustard (SINAR); 4.375 g/ha, applied alone) | % visual injury, Ob (wild mustard (SINAR); 8.75 g/ha, applied alone) | % visual injury, Ob (wild mustard (SINAR); 17.5 g/ha, applied alone) | % visual injury, Ob (wild mustard (SINAR); 35 g/ha, applied alone) | % visual injury, Ob (wild mustard (SINAR); 70 g/ha, applied alone) | % visual injury, Ob (wild mustard (SINAR); compound 0, CQC-m 4.375 g/ha) | % visual injury, Ob (wild mustard (SINAR); compound 0, CQC-m 8.75 g/ha) | % visual injury, Ob (wild mustard (SINAR); compound 0, CQC-m 17.5 g/ha) | % visual injury, Ob (wild mustard (SINAR); compound 0, CQC-m 35 g/ha) | % visual injury, Ob (wild mustard (SINAR); compound 0, CQC-m 70 g/ha) | % visual injury, Ob (wild mustard (SINAR); [1]) | % visual injury, Ob (wild mustard (SINAR); [2]) | % visual injury, Ob (wild mustard (SINAR); [3]) | % visual injury, Ob (wild mustard (SINAR); compound 0 g/ha, CQC-m 35 g/ha) | % visual injury, Ob (wild mustard (SINAR); compound 0 g/ha, CQC-m 70 g/ha) | % visual injury, observed (Ob) (wild mustard (SINAR); [4]) | % visual injury, observed (Ob) (wild mustard (SINAR); compound 8 0 + CQC-m 8.75 g/ha) | % visual injury, observed (Ob) (wild mustard (SINAR); compound 8 0 + CQC-m 17.5 g/ha) | % visual injury, observed (Ob) (wild mustard (SINAR); compound 8 0 + CQC-m 35 g/ha) | % visual injury, observed (Ob) (wild mustard (SINAR); compound 8 0 + CQC-m 70 g/ha) | % visual injury, Ob (Russian thistle (SASKR); 4.375 g/ha, applied alone) | % visual injury, Ob (Russian thistle (SASKR); 8.75 g/ha, applied alone) | % visual injury, Ob (Russian thistle (SASKR); 17.5 g/ha, applied alone) | % visual injury, Ob (Russian thistle (SASKR); 35 g/ha, applied alone) | % visual injury, Ob (Russian thistle (SASKR); 70 g/ha, applied alone) | % visual injury, Ob (Russian thistle (SASKR); compound 0, CQC-m 4.375 g/ha) | % visual injury, Ob (Russian thistle (SASKR); compound 0, CQC-m 8.75 g/ha) | % visual injury, Ob (Russian thistle (SASKR); compound 0, CQC-m 17.5 g/ha) | % visual injury, Ob (Russian thistle (SASKR); compound 0, CQC-m 35 g/ha) | % visual injury, Ob (Russian thistle (SASKR); compound 0, CQC-m 70 g/ha) | % visual injury, Ob (Russian thistle (SASKR); [1]) | % visual injury, Ob (Russian thistle (SASKR); [2]) | % visual injury, Ob (Russian thistle (SASKR); [3]) | % visual injury, Ob (Russian thistle (SASKR); compound 0 g/ha, CQC-m 35 g/ha) | % visual injury, Ob (Russian thistle (SASKR); compound 0 g/ha, CQC-m 70 g/ha) | % visual injury, observed (Ob) (Russian thistle (SASKR); [4]) | % visual injury, observed (Ob) (Russian thistle (SASKR); compound 8 0 + CQC-m 8.75 g/ha) | % visual injury, observed (Ob) (Russian thistle (SASKR); compound 8 0 + CQC-m 17.5 g/ha) | % visual injury, observed (Ob) (Russian thistle (SASKR); compound 8 0 + CQC-m 35 g/ha)
